Measured values from the CheMixHub viscosity set.

Experiment: xn = mol fraction of the nth substance listed
Conditions: 101 kPa

CCNc1ccccc1 + COc1ccccc1
viscosity [mPa·s]
Conditions	293.15 K	298.15 K	303.15 K	308.15 K	313.15 K	318.15 K	323.15 K
x1 = 0.0504	1.109	1.026	0.948	0.881	0.807	0.764	0.709
x1 = 0.1074	1.15	1.059	0.977	0.907	0.83	0.784	0.727
x1 = 0.1541	1.193	1.095	1.009	0.935	0.855	0.805	0.746
x1 = 0.2094	1.234	1.13	1.039	0.961	0.878	0.825	0.763
x1 = 0.2506	1.275	1.164	1.067	0.985	0.9	0.844	0.78
x1 = 0.3006	1.318	1.2	1.098	1.012	0.924	0.864	0.798
x1 = 0.3502	1.364	1.237	1.13	1.04	0.949	0.885	0.816
x1 = 0.4029	1.416	1.279	1.166	1.071	0.976	0.908	0.837
x1 = 0.4504	1.466	1.32	1.201	1.1	1.002	0.931	0.857
x1 = 0.499	1.519	1.363	1.24	1.133	1.031	0.955	0.878
x1 = 0.5504	1.58	1.412	1.281	1.169	1.063	0.981	0.902
x1 = 0.5911	1.64	1.461	1.322	1.204	1.094	1.007	0.924
x1 = 0.6505	1.711	1.517	1.371	1.245	1.131	1.038	0.951
x1 = 0.7027	1.783	1.578	1.421	1.288	1.167	1.069	0.978
x1 = 0.7493	1.853	1.635	1.47	1.331	1.203	1.098	1.004
x1 = 0.7972	1.936	1.699	1.523	1.375	1.242	1.131	1.032
x1 = 0.8509	2.024	1.766	1.578	1.421	1.283	1.164	1.06
x1 = 0.8913	2.103	1.831	1.632	1.466	1.322	1.196	1.087
x1 = 0.9501	2.191	1.9	1.688	1.514	1.363	1.23	1.116
